The text below walks through data of US7678363B2, “Methods of treating psychiatric conditions comprising administration of muscarinic agents in combination with SSRIs” (priority 2005, dated 2010).

In series [1] the test system is Human neural stem cells (hNSCs). In words: Neuronal differentiation of human neural stem cells (TUJ-1 staining). It is filed as cell-based. As to conditions: for pEC50: read-out: EC50 for neuronal differentiation, agent alone. How it is done: Mitogen-free test media with 5 μM DHEA served as a positive control for neuronal differentiation, and basal media without growth factors served as a negative control.
The presence of synergy was determined by use of a combination index (CI). […] The CI is a quantitative measure of the nature of drug interactions, comparing the EC50's of two compounds, when each is assayed alone, to the EC50 of each compound when assayed in combination. The combination index (CI) is equal to the following formula: […]
where C1 and C2 are the concentrations of a first and a second compound, respectively, resulting in 50% activity in neuronal differentiation when assayed in combination; and IC1 and IC2 are the concentrations of each compound resulting in 50% activity when assayed independently.

Another series deals with mGluR2 (Homo sapiens, UniProt Q14416). As to conditions: antagonist; read-out: IC50 against mGluR2; cited from earlier work.
Chain of mGluR2 (Q14416 19-872): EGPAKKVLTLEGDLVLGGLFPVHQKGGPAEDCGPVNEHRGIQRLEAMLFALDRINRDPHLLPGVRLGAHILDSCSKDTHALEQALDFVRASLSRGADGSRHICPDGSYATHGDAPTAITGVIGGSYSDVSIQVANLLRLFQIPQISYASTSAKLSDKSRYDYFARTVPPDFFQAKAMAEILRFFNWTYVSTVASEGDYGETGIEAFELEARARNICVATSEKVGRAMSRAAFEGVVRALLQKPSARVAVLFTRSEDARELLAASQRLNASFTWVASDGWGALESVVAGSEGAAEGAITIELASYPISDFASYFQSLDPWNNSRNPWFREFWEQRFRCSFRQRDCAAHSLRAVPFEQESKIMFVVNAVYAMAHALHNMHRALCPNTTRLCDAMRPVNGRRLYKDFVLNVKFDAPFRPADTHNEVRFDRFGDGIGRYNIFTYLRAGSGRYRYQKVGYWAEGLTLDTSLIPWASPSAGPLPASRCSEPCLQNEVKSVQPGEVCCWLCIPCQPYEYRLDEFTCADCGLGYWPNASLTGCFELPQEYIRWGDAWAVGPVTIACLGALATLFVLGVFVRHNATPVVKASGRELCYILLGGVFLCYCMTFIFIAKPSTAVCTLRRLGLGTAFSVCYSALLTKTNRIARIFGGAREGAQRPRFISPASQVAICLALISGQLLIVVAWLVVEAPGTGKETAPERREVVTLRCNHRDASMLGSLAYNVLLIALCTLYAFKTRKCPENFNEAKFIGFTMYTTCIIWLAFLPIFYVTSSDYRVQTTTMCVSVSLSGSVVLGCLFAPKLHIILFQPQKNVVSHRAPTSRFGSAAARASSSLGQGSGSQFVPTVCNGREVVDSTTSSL
In another series the target is mGluR3 (Homo sapiens, UniProt Q14832). As to conditions: antagonist; read-out: IC50 against mGluR3; cited from earlier work.
Chain of mGluR3 (Q14832 23-879): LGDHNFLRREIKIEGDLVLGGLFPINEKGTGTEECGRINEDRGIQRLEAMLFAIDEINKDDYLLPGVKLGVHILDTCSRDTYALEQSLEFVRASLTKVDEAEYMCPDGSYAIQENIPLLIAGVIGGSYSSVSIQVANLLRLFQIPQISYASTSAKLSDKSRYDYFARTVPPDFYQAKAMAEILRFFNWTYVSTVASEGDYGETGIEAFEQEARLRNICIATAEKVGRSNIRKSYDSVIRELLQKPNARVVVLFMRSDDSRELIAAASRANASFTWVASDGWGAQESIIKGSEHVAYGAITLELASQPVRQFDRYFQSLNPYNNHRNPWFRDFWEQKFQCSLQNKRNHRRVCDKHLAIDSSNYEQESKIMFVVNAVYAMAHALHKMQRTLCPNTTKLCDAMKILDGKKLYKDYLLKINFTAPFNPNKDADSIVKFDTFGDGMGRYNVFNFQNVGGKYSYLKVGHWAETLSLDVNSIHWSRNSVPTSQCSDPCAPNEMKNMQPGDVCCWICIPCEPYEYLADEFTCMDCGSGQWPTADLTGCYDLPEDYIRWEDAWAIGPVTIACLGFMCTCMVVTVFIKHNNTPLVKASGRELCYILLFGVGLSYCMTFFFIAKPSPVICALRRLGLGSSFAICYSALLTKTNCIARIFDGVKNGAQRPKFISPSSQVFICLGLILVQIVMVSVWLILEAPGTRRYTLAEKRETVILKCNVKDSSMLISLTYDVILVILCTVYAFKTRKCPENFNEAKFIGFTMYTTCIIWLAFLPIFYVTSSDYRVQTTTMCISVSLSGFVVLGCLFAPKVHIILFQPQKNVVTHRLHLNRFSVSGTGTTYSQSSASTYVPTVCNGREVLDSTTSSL
The subject of series [2] is Group I and Group III receptors. As to conditions: at sub-mM concentrations; cited from earlier work.
Series [3] has as its system Human neural stem cells (hNSCs). In words: cells. To be noted: Neural stem cell, read-out: EC50 for astrocyte differentiation.
Series [4] has the same test system. As to conditions: maximum of curve.
For series [5] the following is noted: clinical reports; cited from earlier work.
The conditions of series [6]: not told; cited from earlier work.
The target in the next series is human mGlu3 (Homo sapiens, UniProt Q14832). To be noted: read-out: EC50 against human mGlu3 receptors; agonist, in vitro; cited from earlier work.
Chain of human mGlu3 (Q14832 23-879): as above
Another series deals with human mGlu2 (Homo sapiens, UniProt Q14416). To be noted: read-out: EC50 against human mGlu2 receptors; agonist, in vitro; cited from earlier work.
Chain of human mGlu2 (Q14416 19-872): as the sequence (Q14416 19-872) above
A further series concerns mGlu7 and mGlu8. As to conditions: at higher concentrations (e.g., above 1 μM); cited from earlier work.
Series [7] concerns KA, AMPA, and NMDA iGlu receptors. To be noted: cited from earlier work.
Where [8] appears, read: Homo sapiens, Neural stem cell, agent run independently, percentage of neuronal positive control, basal media values subtracted.
The mark [9] stands for this setting: agent run independently, percentage of neuronal positive control, basal media values subtracted.

pEC50, pIC50: −log10 of the molar value. Where a name gives a salt, the structure may show the parent alone.

As a reminder, the pEC50 is the EC50 on a negative log10 scale, so that one unit is a factor of ten. As for `Nc1c2c(nc3ccccc13)CCCC2` [Tacrine, tetrahydroaminoacridine], the pEC50 in [1] (setting [8]) is 5.10.
Take `CN(CCOc1ccc(CC2SC(=O)NC2=O)cc1)c1ccccn1` (stereo not shown) [Rosiglitazone, rosiglitazone]: in series [1] (setting [8]), the pEC50 is 6.03.
What is called pIC50 is −log10 of the IC50, conventionally taken in molar units. On to `NC1(C(=O)O)CCc2cc(P(=O)(O)O)ccc21` (racemic) [APICA, (RS)-1-amino-5-phosphonoindan-1-carboxylic acid], for which the negative logarithm of the IC50 (pIC50) on mGluR2 and at mGluR3 was about 4.52 in each case. Also, the “activity against Group I or Group III receptors” value in series [2] is reported as “no appreciable activity”.
For the molecule `Clc1ccc2c(c1)N=C(N1CCNCC1)c1ccccc1N2` [N-desmethylclozapine], in series [1] (in assays as disclosed herein (not specified)), the neurogenic activity result is on record as “highly neurogenic”.
For `O=C1CC2(CCCC2)CC(=O)N1CCCCN1CCN(c2ncccn2)CC1` [buspirone], the pEC50 is 5.24 in series [3] and 5.08 in [1] (Homo sapiens, Neural stem cell). For the same molecule, the “maximum astrocyte differentiation, % of the positive control” value in series [4] turned out to be 60%.
As to `CNCCC(Oc1ccc(C(F)(F)F)cc1)c1ccccc1` (stereo not shown) [fluoxetine], the “reported side effects / dose limiting toxicities” value in series [5] was “sexual dysfunction and (rarely) agitation and increased suicidal thoughts”.
On to `CNC(=O)Oc1ccc2c(c1)[C@]1(C)CCN(C)[C@@H]1N2C` (single isomer, unassigned) [Physostigmine, 1,2,3,3a,8,8a-hexahydro-1,3a,8-trimethyl-, methylcarbamate (ester) or (3aS,8aR)-pyrrolo(2,3-b)indol-5-ol], for which the blood-brain barrier permeability entry in series [6] was “capable of crossing the blood-brain barrier”.
Regarding `CSc1ccc(C(=O)c2[nH]c(=O)[nH]c2C)cc1` [Enozimone, enoximone], the pEC50 in [1] (setting [8]) is 5.17.
`N[C@@]1(C(=O)O)CO[C@H]2[C@H](C(=O)O)[C@H]21` [LY379268, (−)-2-Oxa-4-aminobicyclohexane-4,6-dicarboxylic acid]: the negative logarithm of the EC50 (pEC50) at human mGlu3 and at human mGlu2 was over 8.00 in each case.
As to `NCC(CC(=O)O)c1ccc(Cl)cc1` (stereo not shown) [Baclofen], the pEC50 in [1] (Homo sapiens, Neural stem cell) is 5.44.
In the case of `C[C@H](CS)C(=O)N1CCC[C@H]1C(=O)O` [captopril], the figures for the pEC50 in series [1] (setting [8]) and in series [1] (setting [9]) were 5.42 and 5.70, respectively.
With `N[C@](CC1c2ccccc2Oc2ccccc21)(C(=O)O)[C@H]1C[C@@H]1C(=O)O` [LY341495, (2S)-2-amino-2-(1S,2S-2-carboxycycloprop-1-yl)-3-(xanth-9-yl)propanoic acid], in the series with mGlu7 and mGlu8, the “activity against mGlu7 and mGlu8” value is given as “antagonist activity”. Besides, the “activity against KA, AMPA, and NMDA iGlu receptors” value in series [7] is “substantially inactive”.
As to `COC(=O)C(c1ccccc1)C1CCCCN1` (stereo not shown) [Ritalin, Methylphenidate hydrochloride], the pEC50 in series [1] (Homo sapiens, Neural stem cell) is 5.46.
As for `COc1cc2c(cc1OC)C(=O)C(CC1CCN(Cc3ccccc3)CC1)C2` (stereo not shown) [donepezil, 2,3-dihydro-5,6-dimethoxy-2-((1-(phenylmethyl)-4-piperidinyl)methyl)-1H-inden-1-one], the pEC50 was 5.69 in series [1] (agent run independently, percentage of neuronal positive control, basal media values subtracted, listed as Donepezil) and 5.33 in [1] (setting [9]).
